The test system of this experiment is P388 leukemia ip, CD2F1 mice, survival T/C. Nature of the experiment: NCI In Vivo Anticancer Drug Screen. Data for tumor model P388 Leukemia (intraperitoneal) in CD2F1 (CDF1) mice. Conditions: endpoint: median survival time, higher = longer survival. In short, it runs like this:
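Mice carrying the transplanted tumor received test compound or vehicle. Survival was recorded in each group, and the value is the treated-group measurement divided by that of the vehicle-treated control group.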

[1] abbreviates: dose: 100.0 mg/kg/injection, schedule: Q01DX001 (ip), vehicle: saline with Tween-80.
Setting [2] is: dose: 200.0 mg/kg/injection, schedule: Q01DX001 (ip), vehicle: saline with Tween-80.
Where [3] appears, read: dose: 400.0 mg/kg/injection, schedule: Q01DX001 (ip), vehicle: saline with Tween-80.
[4] abbreviates: dose: 100.0 mg/kg/injection, schedule: Q01DX001 (ip), vehicle: Klucel (hydroxypropylcellulose) (HPC).
[5] abbreviates: dose: 200.0 mg/kg/injection, schedule: Q01DX001 (ip), vehicle: Klucel (hydroxypropylcellulose) (HPC).
[6] abbreviates: dose: 400.0 mg/kg/injection, schedule: Q01DX001 (ip), vehicle: Klucel (hydroxypropylcellulose) (HPC).
Where [7] appears, read: dose: 25.0 mg/kg/injection, schedule: Q01DX009 (ip), vehicle: saline with Tween-80.
[8] abbreviates: dose: 50.0 mg/kg/injection, schedule: Q01DX009 (ip), vehicle: saline with Tween-80.
[9] abbreviates: dose: 100.0 mg/kg/injection, schedule: Q01DX009 (ip), vehicle: saline with Tween-80.
Setting [10] is: dose: 200.0 mg/kg/injection, schedule: Q01DX009 (ip), vehicle: saline with Tween-80.
Setting [11] is: dose: 50.0 mg/kg/injection, schedule: Q01DX005 (ip), vehicle: Klucel (hydroxypropylcellulose) (HPC).
[12] abbreviates: dose: 100.0 mg/kg/injection, schedule: Q01DX005 (ip), vehicle: Klucel (hydroxypropylcellulose) (HPC).
Setting [13] is: dose: 50.0 mg/kg/injection, schedule: Q01DX005 (ip), vehicle: saline with Tween-80.
[14] abbreviates: dose: 60.0 mg/kg/injection, schedule: Q01DX005 (ip), vehicle: saline with Tween-80.
Setting [15] is: dose: 120.0 mg/kg/injection, schedule: Q01DX005 (ip), vehicle: saline with Tween-80.
[16] abbreviates: dose: 240.0 mg/kg/injection, schedule: Q01DX005 (ip), vehicle: saline with Tween-80.
Setting [17] is: dose: 100.0 mg/kg/injection, schedule: Q01DX005 (ip), vehicle: saline with Tween-80.
Where [18] appears, read: dose: 30.0 mg/kg/injection, schedule: Q01DX005 (ip), vehicle: saline with Tween-80.

Structures are written as SMILES. “And” between values parts separate entries of the source, which are not always exact repeats. Equal entries are not always repeated. Inconclusive results and toxic doses are left out.

Here are results for 29 molecules from PubChem BioAssay AID330 (DTP/NCI, 2004).

`COc1nc(NC2OC(COC(C)=O)C(OC(C)=O)C(OC(C)=O)C2OC(C)=O)c2c(O)coc2n1` (centres undefined): the T/C by setting is: under setting [1], 115 % of control; under setting [2], 106 % of control; under setting [3], 92 % of control.
With `ClCc1nnc2cccc(Cl)n12`, the T/C runs as follows: under setting [4], 102 % of control; under setting [5], 96 % of control; under setting [6], 99 % of control.
In the case of `CC(=O)c1ccc2c(c1)c1c(C)c3c[n+](C)ccc3c(C)c1n2C`, under setting [2], the T/C is 115 % of control.
Regarding `Cc1ccc(S(=O)(=O)N/N=C/c2c(Cl)[nH]c3cc(C)c(O)cc23)cc1`, the T/C runs as follows: (dose: 25.0 mg/kg/injection, schedule: Q01DX001 (ip), vehicle: Klucel (hydroxypropylcellulose) (HPC)) 100 % of control; (dose: 50.0 mg/kg/injection, schedule: Q01DX001 (ip), vehicle: Klucel (hydroxypropylcellulose) (HPC)) 105 % of control; under setting [4], 103 % of control and 91 % of control; under setting [5], 103 % of control; under setting [6], 91 % of control.
For the molecule `CCCSCCSCCC`, the T/C under setting [7] was 91 % of control, the T/C under setting [8] was 100 % of control and the T/C under setting [9] is 95 % of control.
Take `CCOC(=O)C(C(=O)OCC)[N+](=O)[O-]`: the T/C is 100 % of control under setting [8] and 93 % of control under setting [9].
Consider `O=C1CC(SC(=S)C2CCCC2=O)C(=O)O1` (centres undefined), for which the T/C was 109 % of control and 118 % of control (dose: 12.5 mg/kg/injection, schedule: Q01DX009 (ip), vehicle: saline with Tween-80); 109 % of control and 118 % of control under setting [7]; 118 % of control under setting [8].
For `Cc1cc(O)c(C(c2ccc(C#N)cc2)c2c(O)cc(C)[nH]c2=O)c(=O)[nH]1`, the T/C was 95 % of control under setting [8], 94 % of control under setting [9] and 98 % of control under setting [10].
`O=C1CC2C3C1N(c1ccc(Cl)cc1)C1(Nc4ccc(Cl)cc4)C(=O)CC(C31)N2c1ccc(Cl)cc1` (centres undefined): the T/C runs as follows: (dose: 7.5 mg/kg/injection, schedule: Q01DX005 (ip), vehicle: Klucel (hydroxypropylcellulose) (HPC)) 104 % of control; (dose: 15.0 mg/kg/injection, schedule: Q01DX005 (ip), vehicle: Klucel (hydroxypropylcellulose) (HPC)) 101 % of control; (dose: 30.0 mg/kg/injection, schedule: Q01DX005 (ip), vehicle: Klucel (hydroxypropylcellulose) (HPC)) 92 % of control.
As for `O=C(C/C(=N\C(=S)Nc1cc(C(F)(F)F)ccc1Cl)NO)N1CCCC1`, the T/C is 101 % of control and 116 % of control under setting [7]; 105 % of control and 112 % of control under setting [8]; 117 % of control under setting [9]; 117 % of control under setting [10].
For `COc1c(OCC(O)CN2CCCCC2)c2c(C)coc2c2ccoc12` (centres undefined), the T/C is, setting by setting: under setting [11], 100 % of control; under setting [12], 96 % of control.
As for `COC1(OC)CCC(=O)N(Cc2ccccc2)c2cc(C)c(N(Cc3ccccc3)S(=O)(=O)c3ccc(C)cc3)cc2C1C` (centres undefined), the T/C is 95 % of control (dose: 12.5 mg/kg/injection, schedule: Q01DX005 (ip), vehicle: saline with Tween-80); 90 % of control (dose: 25.0 mg/kg/injection, schedule: Q01DX005 (ip), vehicle: saline with Tween-80); 86 % of control and 95 % of control under setting [13].
With `COc1ccc2c(Cl)cc(NC(=S)Nc3ccccc3)nc2c1`, the T/C by setting is: (dose: 6.25 mg/kg/injection, schedule: Q01DX009 (ip), vehicle: Klucel (hydroxypropylcellulose) (HPC)) 103 % of control; (dose: 12.5 mg/kg/injection, schedule: Q01DX009 (ip), vehicle: Klucel (hydroxypropylcellulose) (HPC)) 104 % of control; (dose: 25.0 mg/kg/injection, schedule: Q01DX009 (ip), vehicle: Klucel (hydroxypropylcellulose) (HPC)) 96 % of control.
With `CN(C)P1P(N(C)C)P(N(C)C)P1N(C)C` (centres undefined), the T/C under setting [14] was 97 % of control, the T/C under setting [15] was 97 % of control and the T/C under setting [16] is 95 % of control.
As for `CCc1ccc(N2C(=O)C(CC(=O)O)SC23C(=O)N(Cc2ccccc2)c2ccccc23)cc1` (centres undefined), the T/C under setting [14] was 94 % of control and the T/C under setting [15] is 97 % of control.
Regarding `CS/N=C(/c1ccc(/C(=N/SC)N(C)C)cc1)N(C)C`, the T/C (dose: 60.0 mg/kg/injection, schedule: Q01DX005 (ip), vehicle: Klucel (hydroxypropylcellulose) (HPC)) is 106 % of control; the T/C under setting [14] is 100 % of control; the T/C (dose: 120.0 mg/kg/injection, schedule: Q01DX005 (ip), vehicle: Klucel (hydroxypropylcellulose) (HPC)) is 106 % of control; the T/C under setting [15] is 102 % of control; the T/C under setting [16] was 99 % of control.
Regarding `CCCCCCCCCCCC(=O)NCC(=O)NC1CC(OC2CC(O)(C(C)=O)Cc3c(O)c4c(c(O)c32)C(=O)c2c(OC)cccc2C4=O)OC(C)C1O` (centres undefined), the T/C (dose: 0.75 mg/kg/injection, schedule: Q01DX009 (ip), vehicle: other) was 107 % of control; the T/C (dose: 1.5 mg/kg/injection, schedule: Q01DX009 (ip), vehicle: other) is 108 % of control; the T/C (dose: 3.0 mg/kg/injection, schedule: Q01DX009 (ip), vehicle: other) was 112 % of control; the T/C (dose: 6.0 mg/kg/injection, schedule: Q01DX009 (ip), vehicle: other) was 116 % of control; the T/C (dose: 12.0 mg/kg/injection, schedule: Q01DX009 (ip), vehicle: other) was 99 % of control.
Consider `CC(=O)O[C@H]1CC[C@]2(C)C3CC[C@]4(C)C([C@H](C)CCCC(C)C)CCC4[C@]3(C#N)n3c(=O)n(-c4ccccc4)c(=O)n3[C@]2(C#N)C1` (some centres undefined), for which the T/C under setting [14] was 96 % of control, the T/C under setting [15] was 93 % of control and the T/C under setting [16] is 91 % of control.
As to `N#Cc1nc(CC(=O)c2ccccc2)c(CC(=O)c2ccccc2)nc1C#N`, the T/C reads like this: under setting [14], 100 % of control; under setting [15], 106 % of control and 94 % of control; under setting [16], 100 % of control and 91 % of control.
Regarding `Cc1ccccc1C(C)(C#N)Nc1ccccc1` (centres undefined), the T/C is 100 % of control under setting [9]; 113 % of control under setting [10]; 100 % of control (dose: 400.0 mg/kg/injection, schedule: Q01DX009 (ip), vehicle: saline with Tween-80).
`Cc1ccc(S(=O)(=O)/C=C/CCl)cc1`: the T/C is 103 % of control under setting [13] and 113 % of control under setting [17].
On to `Nc1c(C(=O)Nc2ccc3c(c2)C(=O)c2ccccc2C3=O)ccc2c1C(=O)c1ccccc1C2=O`, for which the T/C runs as follows: under setting [11], 107 % of control; under setting [12], 90 % of control; (dose: 200.0 mg/kg/injection, schedule: Q01DX005 (ip), vehicle: Klucel (hydroxypropylcellulose) (HPC)) 100 % of control.
`CC(C)c1cc(C(C)C)c(S(=O)(=O)N/N=C2\C=CCC(C)(C)C2)c(C(C)C)c1`: the T/C by setting is: (dose: 50.0 mg/kg/injection, schedule: Q01DX009 (ip), vehicle: DMSO) 87 % of control; (dose: 100.0 mg/kg/injection, schedule: Q01DX009 (ip), vehicle: DMSO) 89 % of control; (dose: 200.0 mg/kg/injection, schedule: Q01DX009 (ip), vehicle: DMSO) 97 % of control.
Consider `CN1C(NC(=O)C(C)(C)O)C(C)(C)C(C)(C)C1NC(=O)C(C)(C)O` (centres undefined), for which the T/C runs as follows: under setting [18], 121 % of control; under setting [14], 123 % of control; under setting [15], 151 % of control; under setting [16], 123 % of control.
On to `N#Cc1c2c(c(N3CCCCC3)n3c1nc1ccccc13)CCC2`, for which the T/C is, setting by setting: (dose: 15.0 mg/kg/injection, schedule: Q01DX005 (ip), vehicle: saline with Tween-80) 98 % of control; under setting [18], 102 % of control; under setting [14], 91 % of control and 95 % of control.
Consider `Cc1ccnc(NS(=O)(=O)c2ccc(NCc3c4ccccc4nc4cc(Cl)ccc34)cc2)n1`, for which the T/C under setting [14] was 99 % of control, the T/C under setting [15] is 90 % of control and the T/C under setting [16] was 86 % of control.
As for `CSC1=NS(=O)(=O)c2ccccc21`, the T/C under setting [13] was 96 % of control; the T/C under setting [17] is 96 % of control; the T/C (dose: 200.0 mg/kg/injection, schedule: Q01DX005 (ip), vehicle: saline with Tween-80) was 103 % of control.
`CN(C)CC1=c2ccccc2=N/C1=C\c1ccc(N(C)C)cc1`: the T/C by setting is: under setting [1], 89 % of control; under setting [2], 88 % of control; under setting [3], 92 % of control.
Turning to `CC(C)(C)C1CCC(=O)C2(CCCC2)C1` (centres undefined), the T/C reads like this: under setting [8], 100 % of control; under setting [9], 114 % of control; under setting [10], 122 % of control.
